This passage reports IC50 and inhibition results from the Kinase Knowledgebase extract (Sharma et al. 2016).

Test [1] concerns the target EGFR (human) (UniProt P00533). To be noted: a431.
Test [2] addresses EGFR (human) (UniProt P00533). To be noted: sk-br-3.
Test [3] concerns the target EGFR (human) (UniProt P00533). To be noted: mda468.
A further test concerns the target EGFR (mice) (UniProt P00533). As to conditions: swiss 3t3 fibroblast, dose or concentration not given here.

EGFR (human), sequence (P00533 whole entry, looked up): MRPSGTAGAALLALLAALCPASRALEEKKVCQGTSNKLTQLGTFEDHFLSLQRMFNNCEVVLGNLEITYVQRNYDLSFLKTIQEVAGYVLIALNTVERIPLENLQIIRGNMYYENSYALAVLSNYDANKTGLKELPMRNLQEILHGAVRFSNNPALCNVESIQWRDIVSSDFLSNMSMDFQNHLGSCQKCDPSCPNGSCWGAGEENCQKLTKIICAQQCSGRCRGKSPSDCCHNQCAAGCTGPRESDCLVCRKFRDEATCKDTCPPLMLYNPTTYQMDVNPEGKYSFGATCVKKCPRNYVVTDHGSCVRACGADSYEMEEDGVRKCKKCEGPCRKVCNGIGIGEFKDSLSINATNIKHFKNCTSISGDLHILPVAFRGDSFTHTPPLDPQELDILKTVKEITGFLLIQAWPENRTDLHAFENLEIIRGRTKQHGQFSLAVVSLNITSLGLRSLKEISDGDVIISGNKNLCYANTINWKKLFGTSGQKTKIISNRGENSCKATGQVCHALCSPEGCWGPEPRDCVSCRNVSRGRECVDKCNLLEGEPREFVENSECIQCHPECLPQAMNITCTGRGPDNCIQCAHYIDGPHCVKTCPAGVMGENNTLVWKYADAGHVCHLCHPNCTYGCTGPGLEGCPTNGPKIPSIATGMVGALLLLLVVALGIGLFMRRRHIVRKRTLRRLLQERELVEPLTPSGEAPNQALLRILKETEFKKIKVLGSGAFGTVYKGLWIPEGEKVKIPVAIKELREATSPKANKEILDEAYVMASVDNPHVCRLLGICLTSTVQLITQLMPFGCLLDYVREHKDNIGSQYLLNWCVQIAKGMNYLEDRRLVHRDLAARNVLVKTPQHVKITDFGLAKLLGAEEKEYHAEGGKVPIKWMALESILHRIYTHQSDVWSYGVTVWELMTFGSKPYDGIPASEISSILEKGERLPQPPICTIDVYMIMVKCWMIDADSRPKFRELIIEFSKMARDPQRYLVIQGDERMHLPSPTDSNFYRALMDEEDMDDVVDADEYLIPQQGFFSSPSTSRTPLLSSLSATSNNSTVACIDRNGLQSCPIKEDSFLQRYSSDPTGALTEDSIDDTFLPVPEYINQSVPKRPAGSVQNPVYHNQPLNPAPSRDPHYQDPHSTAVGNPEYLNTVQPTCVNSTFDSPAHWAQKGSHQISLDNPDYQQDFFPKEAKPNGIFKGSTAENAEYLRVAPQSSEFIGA
EGFR (mice), sequence (P00533 whole entry, looked up): as above

What is called IC50 is the concentration that inhibits the measured activity by half. High values mean weaker potency, low ones greater potency. In the case of `c1ccc(CNc2ncnc3[nH]ccc23)cc1`, the IC50 on EGFR (human) [1] and at EGFR (human) [2] was > 1000 nM throughout.
Consider `CN(C)c1cc2c(Nc3cccc(Br)c3)ncnc2cn1`, for which the IC50 against EGFR (human) [2] stood at 39 nM; against EGFR (human) [3], 12000 nM.
Regarding `Fc1ccc2ncnc(Nc3cccc(Br)c3)c2n1`, on EGFR (human) [2], the IC50 is > 10000 nM.
The same measure, in the same setting: under `Nc1cc2ncnc(Nc3cccc(Br)c3)c2cn1` stands 800 nM; under `CN(C)c1ccc2ncnc(Nc3cccc(Br)c3)c2n1`, 71 nM.
As to `CNc1cc2c(Nc3cccc(Br)c3)ncnc2cn1`, the IC50 against EGFR (human) [2] was < 10 nM; against EGFR (human) [3] it was 3000 nM.
For the compound `COc1cc2c(Nc3cccc(Br)c3)ncnc2cn1`, the IC50 at EGFR (human) [2] was < 10 nM.
Regarding `Nc1ccc2ncnc(Nc3cccc(Br)c3)c2n1`, on EGFR (human) [2], the IC50 turned out to be 2660 nM.
What is called inhibition is the drop in the measured response relative to a control, in per cent. Read a high inhibition as a response far below the control. `Nc1cc2ncnc(NCc3ccccc3)c2cn1` registered an inhibition with EGFR (mice) of 5%.
For `NNc1ncc2c(NCc3ccccc3)ncnc2n1`, the IC50 is 124 nM on EGFR (human) [1] and < 10 nM against EGFR (human) [2].
Consider `CNc1ccc2ncnc(Nc3cccc(Br)c3)c2n1`, for which the IC50 against EGFR (human) [2] amounted to 100 nM.
On the same count and under the same terms, under `Nc1cc2ncnc(Nc3cccc([N+](=O)[O-])c3)c2cn1` stands 1500 nM.
